Laboratory results taken from ChEMBL document CHEMBL3621110, “Discovery and Development of the Aryl O-Sulfamate Pharmacophore for Oncology and Women's Health” (J Med Chem, 2015).
One block for each compound: values may come before it.

How the values were obtained:
Steryl-sulfatase [1] = target: T1, Steryl-sulfatase (Homo sapiens, UniProt P08842); format: cell-based, JEG-3
T1 sequence (P08842 whole entry): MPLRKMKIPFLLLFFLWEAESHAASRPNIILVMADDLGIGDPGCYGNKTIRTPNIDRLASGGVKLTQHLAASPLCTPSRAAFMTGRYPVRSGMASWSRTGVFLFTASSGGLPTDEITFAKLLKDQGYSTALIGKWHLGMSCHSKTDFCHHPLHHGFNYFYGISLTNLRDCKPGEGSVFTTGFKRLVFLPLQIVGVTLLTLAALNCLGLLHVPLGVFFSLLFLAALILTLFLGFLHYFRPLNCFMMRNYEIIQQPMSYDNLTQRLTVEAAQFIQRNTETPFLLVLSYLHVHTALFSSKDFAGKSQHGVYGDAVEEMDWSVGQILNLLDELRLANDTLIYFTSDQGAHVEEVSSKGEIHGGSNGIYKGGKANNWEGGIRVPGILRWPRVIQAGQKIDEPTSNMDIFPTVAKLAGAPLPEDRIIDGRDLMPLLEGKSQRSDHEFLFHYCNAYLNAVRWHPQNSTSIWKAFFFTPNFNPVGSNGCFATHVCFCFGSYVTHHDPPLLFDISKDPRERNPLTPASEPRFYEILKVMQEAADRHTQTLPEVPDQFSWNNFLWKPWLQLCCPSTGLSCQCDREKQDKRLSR

Rattus norvegicus [2] = organism: Rattus norvegicus; experiment: animal or person; format: functional; conditions: Liver, po, 168 h
Steryl-sulfatase [3] = target: T1, Steryl-sulfatase; design: species or system Placenta, Microsome
A2780cisR = experiment: cells; format: functional, cell-based; conditions: Homo sapiens
cells [4] = format: functional, cell-based; conditions: Homo sapiens, PC-3
cells [5] = format: functional, cell-based; conditions: Homo sapiens, A2780 ADR
LNCaP = experiment: cells; format: functional, cell-based; conditions: Homo sapiens
MCF7 = experiment: cells; format: functional; conditions: Homo sapiens
MDA-MB-231 = experiment: cells; format: functional; conditions: Homo sapiens
DU-145 = experiment: cells; format: functional; conditions: Homo sapiens
Steryl-sulfatase [6] = target: T1, Steryl-sulfatase; format: microsomes, Placenta, Microsome
Homo sapiens [7] = organism: Homo sapiens; format: functional
Homo sapiens [8] = organism: Homo sapiens; format: functional; remark: listed apart in the source
Cytochrome P450 1A2 = target: T2, Cytochrome P450 1A2 (Homo sapiens, UniProt P05177)
T2 sequence (P05177 whole entry): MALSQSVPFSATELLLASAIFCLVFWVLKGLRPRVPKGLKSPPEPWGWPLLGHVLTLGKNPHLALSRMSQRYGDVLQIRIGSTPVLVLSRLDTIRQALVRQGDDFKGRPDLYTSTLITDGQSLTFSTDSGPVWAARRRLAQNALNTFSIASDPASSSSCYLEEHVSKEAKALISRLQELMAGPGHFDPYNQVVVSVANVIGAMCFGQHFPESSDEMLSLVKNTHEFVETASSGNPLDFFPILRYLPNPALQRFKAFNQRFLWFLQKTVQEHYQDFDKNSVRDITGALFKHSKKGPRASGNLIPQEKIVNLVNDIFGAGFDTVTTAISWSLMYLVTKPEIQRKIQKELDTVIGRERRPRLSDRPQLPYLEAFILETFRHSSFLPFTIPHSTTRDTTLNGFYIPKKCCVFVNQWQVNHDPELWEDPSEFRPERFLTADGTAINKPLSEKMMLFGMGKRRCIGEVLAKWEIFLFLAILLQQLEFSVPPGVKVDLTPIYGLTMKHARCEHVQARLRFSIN

Rattus norvegicus [9] = organism: Rattus norvegicus; experiment: animal or person; format: functional; conditions: Wistar, po, 3 h
Estrogen receptor = target: T3, Estrogen receptor (Homo sapiens, UniProt P03372)
T3 sequence (P03372 whole entry): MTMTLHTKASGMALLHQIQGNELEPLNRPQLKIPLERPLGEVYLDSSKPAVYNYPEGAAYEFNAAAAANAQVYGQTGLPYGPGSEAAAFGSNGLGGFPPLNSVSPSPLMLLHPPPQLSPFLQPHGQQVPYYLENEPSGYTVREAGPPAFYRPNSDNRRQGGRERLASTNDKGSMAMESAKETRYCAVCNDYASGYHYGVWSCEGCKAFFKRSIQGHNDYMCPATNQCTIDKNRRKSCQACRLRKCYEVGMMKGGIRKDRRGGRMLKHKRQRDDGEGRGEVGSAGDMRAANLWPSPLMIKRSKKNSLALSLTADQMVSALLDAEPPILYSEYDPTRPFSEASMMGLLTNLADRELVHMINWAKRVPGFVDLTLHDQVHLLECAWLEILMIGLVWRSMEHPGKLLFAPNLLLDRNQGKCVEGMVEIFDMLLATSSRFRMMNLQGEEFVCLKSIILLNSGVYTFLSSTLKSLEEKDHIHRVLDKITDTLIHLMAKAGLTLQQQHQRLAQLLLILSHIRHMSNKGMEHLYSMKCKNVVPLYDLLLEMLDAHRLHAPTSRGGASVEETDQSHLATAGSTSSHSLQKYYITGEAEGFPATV

Compound: N#Cc1ccc(N(Cc2ccc3cc(OS(N)(=O)=O)ccc3c2)n2cnnc2)cc1
IC50 (Steryl-sulfatase [1]): 367 nM

Compound: Cc1cc(=O)oc2cc(OS(N)(=O)=O)ccc12
inhibition in vivo at 10 mg/kg/day (Rattus norvegicus [2]): 85%

Compound: CCc1cc2c(cc1OS(N)(=O)=O)CC[C@@H]1[C@@H]2CC[C@]2(C)C(=O)CC[C@@H]12
IC50 (A2780cisR): 100 nM
IC50 (cells [4]): 100 nM
IC50 (cells [5]): 100 nM
IC50 (LNCaP): 100 nM
GI50 (MCF7): 340 nM

Compound: CCN1C(=O)C[C@H]2[C@@H]3CCc4cc(OS(N)(=O)=O)ccc4[C@H]3CC[C@]2(C)C1=O
IC50 (Steryl-sulfatase [6]): 52 nM

Compound: COc1cc2c(cc1OS(N)(=O)=O)CCN(Cc1cc(Br)c(OC)c(OC)c1)C2
GI50 (MDA-MB-231): 30 nM
GI50 (DU-145): 30 nM

Compound: CCCCCCN1C(=O)C[C@H]2[C@@H]3CCc4cc(OS(N)(=O)=O)ccc4[C@H]3CC[C@]2(C)C1=O
IC50 (Steryl-sulfatase [6]): 288 nM

Compound: C[C@]12CC[C@@H]3c4ccc(OS(N)(=O)=O)cc4CC[C@H]3[C@@H]1CC[C@@H]2O [E2MATE]
inhibition (INH) (Homo sapiens [7]): 91%
inhibition (INH) (Homo sapiens [8]): 96%

Compound: O=c1oc2cc(O)ccc2c2c1CCCCC2
Ki (Cytochrome P450 1A2): 770 nM

Compound: C[C@]12CC[C@@H]3c4ccc(OS(N)(=O)=O)cc4CC[C@H]3[C@@H]1CC(=O)N(Cc1ccccc1)C2=O
IC50 (Steryl-sulfatase [6]): 3 nM

Compound: N#Cc1ccc(N(Cc2ccc(OS(N)(=O)=O)cc2)n2cnnc2)cc1
inhibition in vivo at 10 mg/kg (Rattus norvegicus [9]): 39%

Compound: CN1C(=O)C[C@H]2[C@@H]3CCc4cc(OS(N)(=O)=O)ccc4[C@H]3CC[C@]2(C)C1=O
IC50 (Steryl-sulfatase [6]): 12 nM

Results, then the compound that gave them:

IC50 (Steryl-sulfatase [3]): 75 nM
Compound: NS(=O)(=O)Oc1ccc2c3c(c(=O)oc2c1)CCCCCCCCCCC3

GI50 (MDA-MB-231): 70 nM
GI50 (DU-145): 100 nM
Compound: CCOc1c(OC)cc(CN2CCc3cc(OS(N)(=O)=O)c(OC)cc3C2)cc1OC

GI50 (MCF7): 42 nM
Compound: C[C@]12CC[C@@H]3c4ccc(OS(N)(=O)=O)c(Br)c4CC[C@H]3[C@@H]1CCC2=O

GI50 (MDA-MB-231): 234 nM
Compound: COc1cccc(CN2Cc3cc(OC)c(OS(N)(=O)=O)cc3CC2C)c1 (centres undefined)

IC50 (Steryl-sulfatase [3]): 200 nM
Compound: NS(=O)(=O)Oc1ccc2c3c(c(=O)oc2c1)CCC3

IC50 (Steryl-sulfatase [1]): 205 nM
Compound: N#Cc1ccc(N(Cc2ccc3c(Br)c(OS(N)(=O)=O)ccc3c2)n2cnnc2)cc1

IC50 (Estrogen receptor): 24600 nM
Compound: CCN(Cc1ccc(C(=O)N2CCc3ccc(O)cc3C2)cc1)Cc1ccccn1

IC50 (Steryl-sulfatase [3]): 70 nM
Compound: NS(=O)(=O)Oc1ccc2c3c(c(=O)oc2c1)CCCC3

IC50 (Steryl-sulfatase [3]): 30 nM
Compound: NS(=O)(=O)Oc1ccc2c3c(c(=O)oc2c1)CCCCCC3

GI50 (MDA-MB-231): 52 nM
GI50 (DU-145): 41 nM
Compound: CCc1cc2c(cc1OS(N)(=O)=O)CCN(Cc1cc(OC)c(OC)c(OC)c1)C2
